Molecules are shown by their SMILES. Like-named read-outs stand apart in the source and are kept apart here.

Common to all, as to type: biochemical
One assay deals with Human Aldose Reductase (Homo sapiens, UniProt P15121). The assay is described as follows: Human Aldose Reductase Inhibition.
Another assay has as its target Rat Aldose Reductase (Rattus norvegicus, UniProt P07943). The assay is described as follows: Rat Aldose Reductase Inhibition. To be noted: for inhibition at 100 µM: 10^-4, read-out: In vitro Aldose Reductase Inhibition; for inhibition at 10 µM: 10^-5, read-out: In vitro Aldose Reductase Inhibition; for inhibition at 1 µM: 10^-6, read-out: In vitro Aldose Reductase Inhibition; for inhibition at 0.1 µM: 10^-7, read-out: In vitro Aldose Reductase Inhibition; for inhibition at 0.01 µM: 10^-8, read-out: In vitro Aldose Reductase Inhibition. An excerpt:
Biophysical Chemistry, 8 (1978) 81-85; P. F. Kador, L. O. Merola and J. H
Kinoshita Documenta Ophthamologica, 18 (1979) 117.

The test system of the next assay is aldose reductase. The assay is described as follows: aldose reductase inhibition of spiro-xanthene-imidazolidines (in words).
[1] abbreviates: 10^-4, human, read-out: In vitro Aldose Reductase Inhibition.
The mark [2] stands for this setting: 10^-5, human, read-out: In vitro Aldose Reductase Inhibition.
The mark [3] stands for this setting: 10^-6, human, read-out: In vitro Aldose Reductase Inhibition.
Setting [4] is: read-out: In vitro Aldose Reductase Inhibition.

For the molecule `O=C1NC(=O)C2(N1)c1ccccc1-c1ccc([N+](=O)[O-])cc12` (racemic) [C, dl-Spiro-[2-nitrofluoren-9,4'-imidazolidine]-2',5'-dione], on Human Aldose Reductase (setting [1]), the inhibition at 100 µM is 65%. For the same molecule, the inhibition at 10 µM on Human Aldose Reductase (setting [2]) came to 20%. Besides, the inhibition at 1 µM on Human Aldose Reductase (setting [3]) came to 8%.
Regarding `O=C1NC(=O)C2(N1)c1ccccc1-c1ccc(Br)cc12` (racemic) [E, dl-Spiro-[2-bromofluoren-9,4'-imidazolidine]-2', 5'-dione], at Rat Aldose Reductase, the inhibition at 100 µM was 100%, the inhibition at 10 µM worked out at 82%, the inhibition at 1 µM was found to be 62% and the inhibition at 0.1 µM stood at 33%. Further, the inhibition at 0.01 µM on Rat Aldose Reductase was determined as 8%.
For `Nc1cccc2c1-c1ccccc1C21NC(=O)NC1=O` (racemic) [G, dl-Spiro-[4-aminofluoren-9,4'-imidazolidine]-2',5'-dione], the inhibition at 100 µM on Human Aldose Reductase (setting [1]) came to 50%. For the same molecule, the inhibition at 10 µM on Human Aldose Reductase (setting [2]) was 28%. The inhibition at 1 µM on Human Aldose Reductase (setting [3]) worked out at 20%.
With `Nc1ccc2c(c1)C1(NC(=O)NC1=O)c1ccccc1-2` (racemic) [H, dl-Spiro-[2-aminofluoren-9,4'-imidazolidine]-2',5'-dione], the inhibition at 100 µM on Human Aldose Reductase (setting [1]) was found to be 43%. Further, the inhibition at 10 µM at Human Aldose Reductase (setting [2]) came out at 31%. Also, the inhibition at 1 µM on Human Aldose Reductase (setting [3]) worked out at 0%.
For `O=C1NC(=O)C2(N1)c1ccccc1-c1ccc(I)cc12` (racemic) [J, dl-Spiro-[2-iodofluoren-9,4'-imidazolidine]-2',5'-dione], at Human Aldose Reductase (setting [1]), the inhibition at 100 µM is 94%. At Human Aldose Reductase (setting [2]), the inhibition at 10 µM was 88%. In addition, the inhibition at 1 µM on Human Aldose Reductase (setting [3]) was 77%. Also, the inhibition at 0.1 µM at Human Aldose Reductase (10^-7, human, read-out: In vitro Aldose Reductase Inhibition) was determined as 39%. In addition, the inhibition at 0.01 µM on Human Aldose Reductase (10^-8, human, read-out: In vitro Aldose Reductase Inhibition) is 0%.
`Cc1cccc2c1C1(NC(=O)NC1=O)c1ccccc1-2` (racemic) [K, dl-Spiro-[1-methylfluoren-9,4'-imidazolidine]-2',5'-dione]: on Rat Aldose Reductase, the inhibition at 100 µM was 96%, the inhibition at 10 µM was 85%, the inhibition at 1 µM was found to be 47% and the inhibition at 0.1 µM turned out to be 6%.
With `O=C1NC(=O)C2(N1)c1ccccc1-c1ccc(C(=O)O)cc12` (racemic) [N, dl-Spiro-[2-carboxyfluoren-9,4'-imidazolidine]-2',5'-dione], on Rat Aldose Reductase, the inhibition at 100 µM was 89%, the inhibition at 10 µM was 54% and the inhibition at 1 µM was determined as 0%.
Turning to `CSc1ccc2c(c1)C1(NC(=O)NC1=O)c1ccccc1-2` (racemic) [P, dl-Spiro-[2-methylthiofluoren-9,4'-imidazolidine]-2',5'-dione], on Rat Aldose Reductase, the IC50 is 420 nM.
With `C[S+]([O-])c1ccc2c(c1)C1(NC(=O)NC1=O)c1ccccc1-2` (racemic) [Q, Spiro-[2-(R,S)-methylsulfinylfluoren-9, (R,S)-4'-imidazolidine]-2',5'-dione], at Rat Aldose Reductase, the IC50 came to 1700 nM.
On Rat Aldose Reductase, `CS(=O)(=O)c1ccc2c(c1)C1(NC(=O)NC1=O)c1ccccc1-2` (racemic) [R, dl-Spiro-(2-methylsulfonylfluoren-9,4'-imidazolidine)-2',5'-dione] had a half-maximal inhibitory concentration (IC50) of 5000 nM.
The molecule `O=C1NC(=O)C2(N1)c1ccccc1-c1cccc(F)c12` (racemic) [S, dl-Spiro-[1-fluorofluoren-9,4'-imidazolidine]-2',5'-dione] returned a half-inhibitory concentration (IC50) against Rat Aldose Reductase of 590 nM.
For `O=C1NC(=O)C2(N1)c1ccccc1-c1c(F)cccc12` (racemic) [U, dl-Spiro-[4-fluorofluoren-9,4'-imidazolidine]-2',5'-dione], inhibition on Rat Aldose Reductase was half-maximal at 460 nM (IC50).
As to `O=C1NC(=O)C2(N1)c1ccccc1-c1ccccc12` [A, Spiro-(fluoren-9,4'-imidazolidine)-2',5'-dione], it took 1200 nM to reach half-maximal inhibition against Human Aldose Reductase (human) (IC50). At Human Aldose Reductase (setting [4]), the inhibition at 0.1 µM worked out at 13%, the inhibition at 1 µM is 49%, the inhibition at 10 µM came out at 84% and the inhibition at 100 µM turned out to be 89%.
Consider `O=C1NC(=O)C2(N1)c1cc(Cl)ccc1-c1ccc(Cl)cc12` [Compound B, Spiro-[2,7-dichlorofluoren-9,4'-imidazolidine]-2',5'-dione], for which the “In vitro Aldose Reductase Inhibition” value was determined as 65 on Human Aldose Reductase (10^-4, human); 30 on Human Aldose Reductase (10^-5, human); 12 at Human Aldose Reductase (10^-6, human).
For `O=C1NC(=O)C2(N1)c1cc([N+](=O)[O-])ccc1-c1ccc([N+](=O)[O-])cc12` [Compound D, Spiro [2,7-dinitrofluoren-9,4'-imidazolidine]-2',5'-dione], on Human Aldose Reductase (setting [4]), the inhibition at 1 µM turned out to be 20%, the inhibition at 10 µM was determined as 76% and the inhibition at 100 µM stood at 100%.
Take `O=C1NC(=O)C2(N1)c1cc(Br)ccc1-c1ccc(Br)cc12` [F, Spiro-[2,7-dibromofluoren-9,4'-imidazolidine]-2',5'-dione]: on Rat Aldose Reductase, the inhibition at 10 µM was determined as 94%, the inhibition at 1 µM was 76%, the inhibition at 0.1 µM worked out at 55% and the inhibition at 0.01 µM came out at 12%.
On to `Nc1ccc2c(c1)C1(NC(=O)NC1=O)c1cc(N)ccc1-2` [I, Spiro-[2,7-diaminofluoren-9,4'-imidazolidine]-2',5'-dione], for which the inhibition at 100 µM on Human Aldose Reductase (setting [1]) came to 50%. Also, the inhibition at 10 µM at Human Aldose Reductase (setting [2]) stood at 25%. For the same molecule, the inhibition at 1 µM at Human Aldose Reductase (setting [3]) stood at 10%.
In the case of `O=C1NC(=O)C2(CCOc3ccc(F)cc32)N1` (stereo not shown) [Sarges Resolved, dSpiro-(6-fluorochroman-4,4imidazolidine)-2',5dione, reference compound], the “activity against human aldose reductase as compared to rat aldose reductase” value at Human Aldose Reductase (human vs rat) was “one fourth”.
As for `O=C1NC(=O)C2(N1)c1cc(F)ccc1Oc1ccc(F)cc12` [spiro-(2,7-difluroxanthen-9,4'-imidazolidine)-2',5'-dione], the “activity as aldose reductase inhibitors relative to corresponding tetracyclic fluorene compounds” value in the assay on aldose reductase was “unexpectedly less active”.
With `O=C1NC(=O)C2(N1)c1ccccc1Oc1ccccc12` [spiro-(xanthen-9,4'-imidazolidine)-2',5'-dione], in the assay with aldose reductase, the “activity as aldose reductase inhibitors relative to corresponding tetracyclic fluorene compounds” value was “unexpectedly less active”.
